# In patent US20110306071A1, “Compositions and Methods for Identifying Substrate Specificity of Inhibitors of Gamma Secretase” (ELAN PHARMACEUTICALS, INC., priority 2007, published 2011):
# Tests used:
# [1] = molecular target: T1, gamma secretase cleavage of C99GVP (AICD-GVP) (Homo sapiens, UniProt P49768); assay: Luciferase reporter gene assay, AICD-GVP transactivation from C99GVP in HEK293 cells; format: cell-based; conditions: C99-GVP, FIG. 5C
# T1 construct: active gamma secretase is endogenously and constitutively produced by the cell cultures; endogenous in cells; host or cells: HEK 293, co-transfected with C99GVP, pG5E1B-luc and pCMV-β-gal
# Procedure: Luciferase Reporter Gene Assay: Luciferase reporter assays were carried out 48 hr post-transfection. Cells seeded on 96-well plates (BD Biosciences) were washed once with PBS and harvested in 20 μl of reporter lysis buffer (Promega) per well. After adding 100 μl of luminescent substrate (Promega), the luciferase activity was measured with a MicroLumatPlus microplate luminometer (Berthold Technologies). The β-galactosidase activity was measured similarly, using a luminescent β-galactosidase substrate (BD Biosciences). As a control for transfection efficiency and general effect on transcription, the luciferase activity was normalized by measuring β-galactosidase activity on a duplicate plate. All measurements were done in triplicate and repeated at least three times.
# Luciferase Assay. After confirming AICD-GVP generation in HEK cells, its ability to transactivate a luciferase reporter gene that contains Gal4 response elements in the upstream activation sequence (UAS) was tested. […] Some residual luciferase activity remained in the presence of excess gamma secretase inhibitors, even though identical treatment completely abolished AICD production as measured by Western blot (FIG. 5B). […]
# [2] = tested on: nuclear AICD-GVP in COS-7 cells; assay: Immunostaining, subcellular distribution of AICD-GVP in transfected COS-7 cells; format: cell-based
# Procedure: Immunostaining: Wild type or transiently transfected COS-7 cells (ATCC) were fixed at room temperature with 2% paraformaldehyde in PBS for 20 min and subsequently permeabilized with 0.2% Triton X-100 in PBS for 10 min. C99GVP and mutant substrates as well as AICD-GVP were detected by incubating the samples sequentially with polyclonal anti-VP16 for 2 h and Rhodamine-conjugated donkey anti-goat secondary antibody (Jackson Laboratory Cat. #705-165-003) for 1 h. All staining was visualized on a Bio-Rad MRC 1024ES confocal microscope (Bio-Rad) and captured with a coupled CCD camera.
# [3] = tested on: gamma secretase (secreted Aβ40 and Aβ42); assay: Aβ sandwich ELISA of media from C99GVP or APP transfected HEK cells treated with inhibitors; format: cell-based, Human
# Procedure: Inhibitor Treatment of Transfected HEK Cell: The transition state analogue gamma secretase inhibitor-L685,458 (Sigma) and the peptidomimetic inhibitor-DAPT (Dovey, H. F., et al., J Neurochem., 2001; 76:173-181) were dissolved in DMSO to make 20 mM stocks. Similarly, a number of Elan's series of sulfonamide inhibitors were prepared and used as described herein (see, also FIGS. 11-14). Inhibitors were added to cell cultures (e.g., HEK) at the indicated final concentration, and the treated cells were harvested 48 h post-transfection. The metallo-proteinase inhibitor TAPI-1 (Calbiochem) was used at a final concentration of 40 μM. The Aβ-degrading enzyme inhibitors, Bacitracin (Calbiochem) and phosphoramidon (Calbiochem) were used at final concentration of 1 mg/ml and 40 μM, respectively. All inhibitor experiments were performed in triplicate and repeated at least three times.
# ELISAs used to quantify different Aβ species were performed using standard techniques as described above and in (Johnson-Wood, K., et al., Proc. Natl. Acad. Sci. U.S.A., 1997; 94: 1550-1555, incorporated by reference). The Aβ40 and Aβ42 peptides in the samples were captured onto 2G3 or 21F12 antibody coated plates, respectively, and detected with a biotinylated 2H3 antibody. The fluorescence signal generated from a streptavidin-alkaline phosphatase conjugate (Roche) was measured with a CytoFlour microplate reader (Applied Biosystems). Synthetic Aβ40 or Aβ42 peptides (Anaspec) were used to generate standard curves (FIG. 10). All measurements were done in triplicate.
# Next, Aβ generation was characterized from C99GVP. Wild type HEK cells and the mock-transfection control secreted little Aβ into the conditioned media (FIG. 5D, lane 1). In contrast, transient expression of C99GVP led to robust Aβ production, as measured by IP/Western blot (FIG. 5D) and ELISAs that detect Aβ 40 and Aβ42 species, respectively ([…], top panel). […] Finally, we compared the Aβ-lowering potency of two inhibitors, using either C99GVP or the wild type APP as substrate. As determined by ELISA, the respective IC50 values for the two substrates are essentially identical (FIG. 5E).
# [4] = molecular target: T2, gamma secretase γ and ε cleavage of Fas-APPsw-DD (Homo sapiens, UniProt P49768); assay: Concurrent Aβ and AICD ELISA in Fas-APPsw-DD transfected 293 cells (APP γ versus ε cleavage); format: cell-based
# T2 construct: active gamma secretase is endogenously and constitutively produced by the cell cultures; endogenous in cells; host or cells: HEK 293, transfected with Fas-APPsw-DD
# Procedure: Polyclonal antibody AICD ELISA. HEK 293 cells were grown under standard conditions to ˜90% confluence. Cells were harvested, counted, and subsequently plated onto PDL-coated 60 mm dishes at 2×10^6 cells/dish in 5 mL media. The cells were allowed to settle onto the dishes for ˜4 hours. Transfection of various construct into cells was performed using standard techniques using Lipofectamine 2000™ (LF2K) (Invitrogen). Briefly, 2 μg plasmid DNA and 4 μL LF2K were diluted into separate 150 μL aliquots of Opti-MEM (Gibco), and allowed to stand for 10-15 minutes. The two aliquots were then mixed, and the DNA:Lipid complex allowed to form for about 20 minutes. The 300 μL DNA:Lipid complex was then added to the cells in 3 mL fresh media, and incubated overnight. In order to administer potential or known gamma secretase inhibitor compounds to cells, the transfected cells were harvested, replated into PDL-coated 24-well plates at 200,000 cells/well, and allowed to settle onto the plates for ˜4 hours. Cells were washed, and 500 μL fresh media added. […]
# The term ‘non-selective’ in this instance refers to lack of selectivity for cell Aβ over Notch signaling (or GammaAPP over GammaNotch). […] The calculated γ/ε selectivity of the non-selective compounds (FIG. 11 and Table I) were 0.7, 1.1, 1.8 and 1.9 for DAPT, 44989, 46719 and the Merck compound, respectively. […]
compound,measurement,setting,value
C[C@H](NC(=O)Cc1cc(F)cc(F)c1)C(=O)N[C@H](C(=O)OC(C)(C)C)c1ccccc1 [DAPT],luciferase reporter transactivation by AICD-GVP,[1],block luciferase reporter transactivation
same,nuclear staining of AICD-GVP,"[2]; C99GVP transfected COS-7 cells, 5 μM, FIG. 5F",abolished
same,nuclear staining of JMD chimeras,"[2]; JMD chimeras in COS-7 cells, FIG. 6G",abolished
same,secreted Aβ (Aβ40 and Aβ42),"[3]; 5 μM, 24 h, FIG. 5D",block secreted Aβ
same,Aβ potency (IC50) with C99GVP versus native APP substrate,[3]; FIG. 5E,equal Aβ potency
same,γ/ε selectivity = IC50 AICD/IC50 Aβ,[4],0.7
